Test results taken from paper PMC11561307, “Ultra-inert lanthanide chelates as mass tags for multiplexed bioanalysis” (Nature Communications, 2024).

Experiment: Kinetic inertness: acid-assisted dechelation in excess HCl
Assay type: physicochemical
Conditions: for t½ (0.1 M HCl, 80 °C) / t½ (1.0 M HCl, 80 °C) / t½ (6.0 M HCl, 80 °C) / t½ (0.1 M HCl, 25 °C): dechelation half-life, HPLC-UV after 1 h, 1 day, 1 week, 1 month, ± error of the fit; for t½ (0.1 M HCl, 80 °C) / t½ (0.1 M HCl, 25 °C): 0.5 mM chelate in 0.1 M HCl; for t½ (0.1 M HCl, 80 °C) / t½ (1.0 M HCl, 80 °C) / t½ (0.1 M HCl, 25 °C): exponential decay fit; for t½ (1.0 M HCl, 80 °C): 0.5 mM chelate in 1.0 M HCl; for t½ (6.0 M HCl, 80 °C): 0.5 mM chelate in 6.0 M HCl, fit y = exp(−x/t), t½ = ln(2) × t; for abundance of intact chelate: section above Supp. Fig 16, head with acid, temperature and time not given; for half-life, h / half-life: Figure 2A

SMILES | t½ (0.1 M HCl, 80 °C) (80 °C) | t½ (1.0 M HCl, 80 °C) (80 °C) | t½ (6.0 M HCl, 80 °C) (80 °C) | abundance of intact chelate | half-life, h (0.1 M HCl, 25 °C) | half-life (0.1 M HCl, 80 °C) | half-life (1.0 M HCl, 80 °C) | half-life (6.0 M HCl, 80 °C) | t½ (0.1 M HCl, 25 °C) (25 °C) | estimated half-life (6.0 M HCl at 80 °C) | half-life, h (0.1 M HCl, 80 °C) | half-life, h (1.0 M HCl, 80 °C) | half-life (0.1 M HCl, 25 °C) | half-life, h (6.0 M HCl, 80 °C) | intact chelate (ratio NO2BnDOTA/[Lu(NO2BnDOTA)]) (0.1 M HCl at 80 °C after 1 h, HPLC-UV, initial and repeated injection identical)
O=C([O-])CN1CCN2CCN(CC(=O)[O-])CCN(CC1)Cc1cccc(n1)-c1cn(nn1)Cc1cc(-c3ccccc3)cc(n1)C2.[Lu+3] [1,4-cz-[Lu(PhL1)]] | too unstable | too unstable | too unstable | 98.7% |  |  |  |  |  |  |  |  |  |  | 
O=C([O-])CN1CCN2CCN(CC(=O)[O-])CCN(CC1)Cc1cccc(n1)-c1cnnn1Cc1cc(-c3ccccc3)cc(n1)C2.[Tb+3] [Ph{Tb}] |  |  |  |  | too stable | 31700 h | 372 h | 2.1 h | too stable |  |  |  |  |  | 
O=C([O-])CN1CCN(CC(=O)[O-])CCN(CC(=O)[O-])C(Cc2ccc([N+](=O)[O-])cc2)CN(CC(=O)[O-])CC1.[La+3] (stereo not drawn) [[La(NO2BnDOTA)], reference compound] |  | too unstable | too unstable |  |  |  |  |  |  |  |  |  |  |  | 
O=C([O-])CN1CCN2CCN(CC(=O)[O-])CCN(CC1)Cc1cccc(n1)-c1cnnn1Cc1cc(-c3ccccc3)cc(n1)C2.[Lu+3] [Ph{Lu}] | too stable | too stable |  | 100.0% | too stable |  |  | 25300 h | too stable | ~3 years | too stable | too stable |  |  | 
O=C([O-])CN1CCN2CCN(CC(=O)[O-])CCN(CC1)Cc1cccc(n1)-c1cnnn1Cc1cc(-c3ccccc3)cc(n1)C2.[Y+3] [Ph{Y}] |  |  |  | 100.0% |  |  |  |  | too stable |  |  |  |  |  | 
O=C([O-])CN1CCN2CCN(CC(=O)[O-])CCN(CC1)Cc1cccc(n1)-c1cnnn1Cc1cc(-c3ccccc3)cc(n1)C2.[Nd+3] [Ph{Nd}] |  | too unstable | too unstable |  |  | 2.55 h |  |  |  |  |  | too unstable | 179 h | too unstable | 
O=C([O-])CN1CCN2CCN(CC(=O)[O-])CCN(CC1)Cc1cccc(n1)-c1cnnn1Cc1cc(-c3ccccc3)cc(n1)C2.[Ho+3] [Ph{Ho}] | too stable |  |  | 100.0% | too stable |  | 13200 h | 68.2 h | too stable |  | too stable |  |  |  | 
O=C([O-])CN1CCN2CCN(CC(=O)[O-])CCN(CC1)Cc1cccc(n1)-c1cnnn1Cc1cc(-c3ccccc3)cc(n1)C2.[Ce+3] [Ph{Ce}] | too unstable | too unstable | too unstable |  |  |  |  |  |  |  | too unstable | too unstable | 16.5 h | too unstable | 
O=C([O-])CN1CCN2CCN(CC(=O)[O-])CCN(CC1)Cc1cccc(n1)-c1cnnn1Cc1cc(-c3ccccc3)cc(n1)C2.[La+3] [Ph{La}] | too unstable | too unstable | too unstable |  |  |  |  |  |  |  | too unstable | too unstable | 2.48 h | too unstable | 
O=C([O-])CN1CCN2CCN(CC(=O)[O-])CCN(CC1)Cc1cccc(n1)-c1cnnn1Cc1cc(-c3ccccc3)cc(n1)C2.[Gd+3] [Ph{Gd}] |  |  |  |  | too stable | 2470 h | 30.4 h | 0.17 h | too stable |  |  |  |  |  | 
O=C([O-])CN1CCN2CCN(CC(=O)[O-])CCN(CC1)Cc1cccc(n1)-c1cnnn1Cc1cc(-c3ccccc3)cc(n1)C2.[Tm+3] [Ph{Tm}] | too stable | too stable |  | 100.0% | too stable |  |  | 1360 h | too stable |  | too stable | too stable |  |  | 
O=C([O-])CN1CCN(CC(=O)[O-])CCN(CC(=O)[O-])C(Cc2ccc([N+](=O)[O-])cc2)CN(CC(=O)[O-])CC1.[Lu+3] (stereo not drawn) [[Lu(NO2BnDOTA)], reference compound] |  |  | too unstable |  |  |  |  |  |  |  |  |  |  |  | 76%
O=C([O-])CN1CCN2CCN(CC(=O)[O-])CCN(CC1)Cc1cccc(n1)-c1cnnn1Cc1cc(-c3ccccc3)cc(n1)C2.[Sm+3] [Ph{Sm}] |  |  | too unstable |  |  | 111 h | 1.46 h |  |  |  |  |  | 13400 h | too unstable | 
O=C([O-])CN1CCN2CCN(CC(=O)[O-])CCN(CC1)Cc1cccc(n1)-c1cn(nn1)Cc1cc(-c3ccccc3)cc(n1)C2.[Gd+3] [1,4-cz-[Gd(PhL1)]] | too unstable | too unstable | too unstable | 97.8% |  |  |  |  |  |  |  |  |  |  | 
O=C([O-])CN1CCN2CCN(CC(=O)[O-])CCN(CC1)Cc1cccc(n1)-c1cnnn1Cc1cc(-c3ccccc3)cc(n1)C2.[Pr+3] [Ph{Pr}] |  | too unstable | too unstable |  |  | 0.467 h |  |  |  |  |  | too unstable | 51.7 h | too unstable | 
O=C([O-])CN1CCN2CCN(CC(=O)[O-])CCN(CC1)Cc1cccc(n1)-c1cnnn1Cc1cc(-c3ccccc3)cc(n1)C2.[Ca+2] [Ph{Ca}] | too unstable | too unstable | too unstable | 38.9% |  |  |  |  |  |  |  |  |  |  | 
O=C([O-])CN1CCN(CC(=O)[O-])CCN(CC(=O)[O-])C(Cc2ccc([N+](=O)[O-])cc2)CN(CC(=O)[O-])CC1.[Gd+3] (stereo not drawn) [[Gd(NO2BnDOTA)], reference compound] |  |  | too unstable |  |  |  |  |  |  |  |  |  |  |  | 
O=C([O-])CN1CCN2CCN(CC(=O)[O-])CCN(CC1)Cc1cccc(n1)-c1cnnn1Cc1cc(-c3ccccc3)cc(n1)C2.[Er+3] [Ph{Er}] | too stable |  |  | 100.0% | too stable |  | 59200 h | 343 h | too stable |  | too stable |  |  |  | 
O=C([O-])CN1CCN2CCN(CC(=O)[O-])CCN(CC1)Cc1cccc(n1)-c1cnnn1Cc1cc(-c3ccccc3)cc(n1)C2.[Dy+3] [Ph{Dy}] |  |  |  | 100.0% | too stable | 95000 h | 3500 h | 12 h | too stable |  |  |  |  |  | 
O=C([O-])CN1CCN2CCN(CC(=O)[O-])CCN(CC1)Cc1cccc(n1)-c1cnnn1Cc1cc(-c3ccccc3)cc(n1)C2.[Eu+3] [Ph{Eu}] |  |  | too unstable |  | too stable | 380 h | 7.3 h |  | too stable |  |  |  |  | too unstable | 
O=C([O-])CN1CCN2CCN(CC(=O)[O-])CCN(CC1)Cc1cccc(n1)-c1cnnn1Cc1cc(-c3ccccc3)cc(n1)C2.[Yb+3] [Ph{Yb}] | too stable | too stable |  | 100.0% | too stable |  |  | 4690 h | too stable |  | too stable | too stable |  |  | 
